From patent US20180179167A1, “Nrf2 REGULATORS” (GlaxoSmithKline Intellectual Property Development Limited, priority 2015, published 2018)

Each compound was assayed on NQO1 specific enzyme activity in BEAS-2B cells (assay: BEAS-2B NQO1 MTT Assay). Conditions: Homo sapiens, EC50 of NQO1 specific activity induction, 48 hours with compound.
Format: cell-based
Source text: NAD(P)H:quinone oxidoreductase 1 (NQO1), also called DT diaphorase, is a homodimeric FAD-containing enzyme that catalyzes obligatory NAD(P)H-dependent two-electron reductions of quinones and protects cells against the toxic and neoplastic effects of free radicals and reactive oxygen species arising from one-electron reductions. The transcription of NQO1 is finely regulated by Nrf2, and thus NQO1 activity is a good marker for Nrf2 activation. On day one, frozen BEAS-2B cells (ATCC) are thawed in a water bath, counted, and re-suspended at a concentration of 250,000 cells/mL. Fifty microliters of cells are plated in 384 well black clear-bottomed plates. Plates are incubated at 37° C., 5% CO2 overnight. On day two, plates are centrifuged and 50 nL of compound or controls are added to the cells. Plates are then incubated at 37° C., 5% CO2 for 48 hours. On day four, medium is aspirated from the plate and crude cell lysates are made by adding 13 uL of 1× Cell Signaling Technologies lysis buffer with 1 Complete, Mini, EDTA-free Protease Inhibitor Tablet (Roche) for each 10 mL of lysis buffer . After lysis plates are incubated for 20 minutes at room temperature. Two microliters of lysate are removed for use in Cell Titer Glo assay (Promega) and MTT cocktail is prepared (Prochaska et. al. 1998) for measurement of NQO1 activity. Fifty microliters of MTT cocktail is added to each well, plate is centrifuged, and analyzed on an Envision plate reader (Perkin Elmer) using Absorbance 570 nm label for 30 minutes. Product formation is measured kinetically and the EC50 of NQO1 specific activity induction is calculated by plotting the change in absorbance (Delta OD/min) versus the log of compound concentration followed by 3-parameter fitting.
EC50s <1 nM (+++++), EC50s 10 nM-1 nM (++++), EC50s 10-100 nM (+++), EC50s 100 nM-1 uM (++), EC50s 1-10 uM (+), EC50s >10 uM (−), or were not determined (ND).
`Cc1c(C(CC(=O)O)c2ccc(Cl)c(CN(C)C(=O)OC(C)(C)C)c2)ccc2c1nnn2C` (centres unmarked) [Example 1, 3-[3-({[(tert-Butoxy)carbonyl](methyl)amino}methyl)-4-chlorophenyl]-3-(1,4-dimethyl-1H-1,2,3-benzotriazol-5-yl)propanoic acid] was tested, and the EC50 was 100 to 1000 nM.
In the case of `CN(Cc1cc(C(CC(=O)O)c2ccc3c(c2)nnn3C)ccc1Cl)C(=O)OC1CCCC1` (centres unmarked) [Example 2, 3-[4-Chloro-3-({[(cyclopentyloxy)carbonyl](methyl)amino}methyl)phenyl]-3-(1-methyl-1H-1,2,3-benzotriazol-5-yl)propanoic acid], the EC50 is reported as 1000 to 10000 nM.
For `CCC(C)OC(=O)N(C)Cc1cc(C(CC(=O)O)c2ccc3c(c2)nnn3C)ccc1Cl` (centres unmarked) [Example 3, 3-[3-({[(Butan-2-yloxy)carbonyl](methyl)amino}methyl)-4-chlorophenyl]-3-(1-methyl-1H-1,2,3-benzotriazol-5-yl)propanoic acid], the EC50 was 1000 to 10000 nM.
`COc1cc(C(CC(=O)O)c2ccc(C)c(CN(C)C(=O)OC(C)(C)C)c2)cc2nnn(C)c12` (centres unmarked) [Example 4, 3-[3-({[(tert-Butoxy)carbonyl](methyl)amino}methyl)-4-methylphenyl]-3-(7-methoxy-1-methyl-1H-1,2,3-benzotriazol-5-yl)propanoic acid] gave an EC50 of 1000 to 10000 nM.
For `CN(Cc1cc(C(CC(=O)O)c2ccc3c(c2)nnn3C)ccc1Cl)C(=O)OC1CCCCC1` (centres unmarked) [Example 5, 3-(4-Chloro-3-((((cyclohexyloxy)carbonyl)(methyl)amino)methyl)phenyl)-3-(1-methyl-1H-benzo[d][1,2,3]triazol-5-yl)propanoic acid], the EC50 was 1000 to 10000 nM.
`COc1cc(C(CC(=O)O)c2ccc(Cl)c(CN(C)C(=O)OC(C)(C)C)c2)cc2nnn(C)c12` (centres unmarked) [Example 6, 3-(3-(((tert-Butoxycarbonyl)(methyl)amino)methyl)-4-chlorophenyl)-3-(7-methoxy-1-methyl-1H-benzo[d][1,2,3]triazol-5-yl)propanoic acid] gave an EC50 of 100 to 1000 nM.
For `Cc1ccc(C(CC(=O)O)c2ccc3c(c2)nnn3C)cc1OCC(=O)N(C)C` (centres unmarked) [Example 7, 3-(3-(2-(Dimethylamino)-2-oxoethoxy)-4-methylphenyl)-3-(1-methyl-1H-benzo[d][1,2,3]triazol-5-yl)propanoic acid], the EC50 was 1000 to 10000 nM.
`Cc1ccc(C(CC(=O)O)c2ccc3c(nnn3C)c2C)cc1CN(C)C(=O)Oc1ccc([N+](=O)[O-])cc1` (centres unmarked) [Example 8, 3-(1,4-Dimethyl-1H-benzo[d][1,2,3]triazol-5-yl)-3-(4-methyl-3-((methyl((4-nitrophenoxy)carbonyl)amino)methyl)phenyl)propanoic acid] showed an EC50 of 1000 to 10000 nM.
With `COc1cc(C(CC(=O)O)c2ccc(Cl)c(CN(C)C(=O)OC3CCCC3)c2)cc2nnn(C)c12` (centres unmarked) [Example 9, 3-(4-Chloro-3-((((cyclopentyloxy)carbonyl)(methyl)amino)methyl)phenyl)-3-(7-methoxy-1-methyl-1H-benzo[d][1,2,3]triazol-5-yl)propanoic acid] the EC50 was 1000 to 10000 nM.
`COCC(C)(C)OC(=O)N(C)Cc1cc(C(CC(=O)O)c2ccc3c(nnn3C)c2C)ccc1C` (centres unmarked) [Example 10] was tested, and the EC50 was 1000 to 10000 nM.
In the case of `CC(=O)N(Cc1cc(C(CC(=O)O)c2ccc3c(nnn3C)c2C)ccc1C)CC1CCCCC1` (centres unmarked) [Example 11, 3-(3-((N-(Cyclohexylmethyl)acetamido)methyl)-4-methylphenyl)-3-(1,4-dimethyl-1H-benzo[d][1,2,3]triazol-5-yl)propanoic acid], the EC50 is reported as 1000 to 10000 nM.
Work on `CC(=O)N(Cc1ccccc1)Cc1cc(C(CC(=O)O)c2ccc3c(nnn3C)c2C)ccc1C` (centres unmarked) [Example 12, 3-(3-((N-Benzylacetamido)methyl)-4-methylphenyl)-3-(1,4-dimethyl-1H-benzo[d][1,2,3]triazol-5-yl)propanoic acid] yielded an EC50 of 1000 to 10000 nM.
`CC(=O)N(Cc1cccc(C)c1)Cc1cc(C(CC(=O)O)c2ccc3c(nnn3C)c2C)ccc1C` (centres unmarked) [Example 13, 3-(1,4-Dimethyl-1H-benzo[d][1,2,3]triazol-5-yl)-3-(4-methyl-3-((N-(3-methylbenzyl)acetamido)methyl)phenyl)propanoic acid] was tested, and the EC50 was 1000 to 10000 nM.
In the case of `CC(=O)N(Cc1cc(C(CC(=O)O)c2ccc3c(nnn3C)c2C)ccc1C)Cc1cccc(C)c1C` (centres unmarked) [Example 14, 3-(1,4-Dimethyl-1H-benzo[d][1,2,3]triazol-5-yl)-3-(3-((N-(2,3-dimethylbenzyl)acetamido)methyl)-4-methylphenyl)propanoic acid], the EC50 is reported as 1000 to 10000 nM.
Work on `COc1ccc(CN(Cc2cc(C(CC(=O)O)c3ccc4c(nnn4C)c3C)ccc2C)C(C)=O)cc1` (centres unmarked) [Example 15, 3-(1,4-Dimethyl-1H-benzo[d][1,2,3]triazol-5-yl)-3-(3-((N-(4-methoxybenzyl)acetamido)methyl)-4-methylphenyl)propanoic acid] yielded an EC50 of 1000 to 10000 nM.
`CCc1ccc(CN(Cc2cc(C(CC(=O)O)c3ccc4c(nnn4C)c3C)ccc2C)C(C)=O)cc1` (centres unmarked) [Example 16, 3-(1,4-Dimethyl-1H-benzo[d][1,2,3]triazol-5-yl)-3-(3-((N-(4-ethylbenzyl)acetamido)methyl)-4-methylphenyl)propanoic acid] was tested, and the EC50 was 1000 to 10000 nM.
In the case of `CCC1CCC(CN(Cc2cc(C(CC(=O)O)c3ccc4c(nnn4C)c3C)ccc2C)C(C)=O)CC1` (centres unmarked) [Example 17, 3-(1,4-Dimethyl-1H-benzo[d][1,2,3]triazol-5-yl)-3-(3-((N-((4-ethylcyclohexyl)methyl)acetamido)methyl)-4-methylphenyl)propanoic acid], the EC50 is reported as 10 to 100 nM.
Work on `Cc1ccc(C(CC(=O)O)c2ccc3c(nnn3C)c2C)cc1CN(CC1CCCCC1)C(N)=O` (centres unmarked) [Example 18, 3-(3-((1-(Cyclohexylmethyl)ureido)methyl)-4-methylphenyl)-3-(1,4-dimethyl-1H-benzo[d][1,2,3]triazol-5-yl)propanoic acid] yielded an EC50 of 1000 to 10000 nM.
For `CCC1CCC(CN(Cc2cc(C(CC(=O)O)c3ccc4c(nnn4C)c3C)ccc2C)C(N)=O)CC1` (centres unmarked) [Example 19, 3-(1,4-Dimethyl-1H-benzo[d][1,2,3]triazol-5-yl)-3-(3-((1-((4-ethylcyclohexyl)methyl)ureido)methyl)-4-methylphenyl)propanoic acid], the EC50 was 1000 to 10000 nM.
`COc1cc(C(CC(=O)O)c2ccc(C)c(CN(CC3CCCCC3)C(C)=O)c2)cc2nnn(C)c12` (centres unmarked) [Example 20, 3-(3-((N-(Cyclohexylmethyl)acetamido)methyl)-4-methylphenyl)-3-(7-methoxy-1-methyl-1H-benzo[d][1,2,3]triazol-5-yl)propanoic acid] gave an EC50 of 100 to 1000 nM.
`CCC1CCC(CN(Cc2cc(C(c3ccc4c(nnn4C)c3C)C(C)(C)C(=O)O)ccc2C)C(N)=O)CC1` (centres unmarked) [Example 22, 3-(1,4-Dimethyl-1H-benzo[d][1,2,3]triazol-5-yl)-3-(3-((1-((4-ethylcyclohexyl)methyl)ureido)methyl)-4-methylphenyl)-2,2-dimethylpropanoic acid] showed an EC50 of 1 to 10 nM.
Compound `Cc1ccc([C@@H](c2ccc3c(nnn3C)c2C)C(C)(C)C(=O)O)cc1CN(CC1CCCCCC1)C(N)=O` [Example 23, (S)-3-(3-((1-(Cycloheptylmethyl)ureido)methyl)-4-methylphenyl)-3-(1,4-dimethyl-1H-benzo[d][1,2,3]triazol-5-yl)-2,2-dimethylpropanoic acid] has an EC50 of 1 to 10 nM.
In the case of `CCC1CCC(O)(CN(Cc2cc([C@@H](c3ccc4c(nnn4C)c3C)C(C)(C)C(=O)O)ccc2C)C(N)=O)CC1` (stereo partly drawn) [Example 24, (S)-3-(1,4-Dimethyl-1H-benzo[d][1,2,3]triazol-5-yl)-3-(3-((1-((4-ethyl-1-hydroxycyclohexyl)methyl)ureido)methyl)-4-methylphenyl)-2,2-dimethylpropanoic acid], the EC50 is reported as 10 to 100 nM.
In the case of `Cc1ccc([C@@H](c2ccc3c(nnn3C)c2C)C(C)(C)C(=O)O)cc1CN(CC1(O)CCCCCC1)C(N)=O` [Example 25, (S)-3-(1,4-Dimethyl-1H-benzo[d][1,2,3]triazol-5-yl)-3-(3-((1-((1-hydroxycycloheptyl)methyl)ureido)methyl)-4-methylphenyl)-2,2-dimethylpropanoic acid], the EC50 is reported as 100 to 1000 nM.
`CC(=O)N(Cc1cc(C(c2ccc3c(nnn3C)c2C)C(C)(C)C(=O)O)ccc1C)CC1(O)CCCCC1` (centres unmarked) [Example 26, 3-(1,4-Dimethyl-1H-benzo[d][1,2,3]triazol-5-yl)-3-(3-((N-((1-hydroxycyclohexyl)methyl)acetamido)methyl)-4-methylphenyl)-2,2-dimethylpropanoic acid] gave an EC50 of 100 to 1000 nM.
`CC(=O)N(Cc1cc(C(CC(=O)O)c2ccc3c(nnn3C)c2C)ccc1C)CC1CCCCCC1` (centres unmarked) [Example 27, 3-(3-((N-(Cycloheptylmethyl)acetamido)methyl)-4-methylphenyl)-3-(1,4-dimethyl-1H-benzo[d][1,2,3]triazol-5-yl)propanoic acid] gave an EC50 of 100 to 1000 nM.
